Data: PMC7497692 (Investigational New Drugs, 2020)
“And” between values parts separate entries of the source, which are not always exact repeats. Equal values may be shown once.

How the values were obtained:
[1] = Mass balance: excretion of radioactivity in urine and feces after oral [14C]-tepotinib (part A); format: in vivo, human healthy male volunteers
Description: (§1) Participants were hospitalized from day 1 to day 16 of the study, and further assessed on days 19, 22, and 25 (trial end). […] Pre-dose feces and urine samples were collected on day 1 and day 2, respectively. Urine was collected at 4- to 12-h intervals on day 1 and every 24 h thereafter up to day 16. Feces were collected every 24 h up to day 16. Provision was made to collect further samples up to day 39 if >1% of the administered dose was detectable in the total (urine and feces) excreta per day on two consecutive measurements.
Total radioactivity in blood, plasma, urine, and feces samples, and quick counts in urine and feces samples were determined at the bioanalytical laboratory of PRA (Assen, The Netherlands) using liquid scintillation counting (LSC). Scintillation cocktail Ultima Gold™ (5 mL; Perkin Elmar, Waltham, Massachusetts, USA) was directly spiked into 250 μL plasma and 1000 μL urine samples, respectively, whereas 300 μL aliquots of blood samples were solubilized and decolorized before adding 18 mL of the scintillation cocktail prior to LSC. Feces samples were (quantitatively) homogenized with one or two weight equivalents of water, and an accurately weighted aliquot of approximately 500 mg of the homogenate was dried at 50 °C for at least 3 h. After addition of 100 μL combustion aid, the dried samples were combusted in a sample oxidizer model 307 (Perkin Elmer, Waltham, Massachusetts, USA) using 7 mL CarboSorb® E as an absorber agent for carbon dioxide. At the end of the combustion cycle, the absorber was mixed with 13 mL of the scintillant PermaFluor® E. All scintillation counting using either low-level or normal count modes was carried out in duplicate using a Tri-Carb 3100 TR liquid scintillation analyzer (Perkin Elmer, Waltham, Massachusetts, USA), in compliance with analytical procedures validated by the PRA.
The maximum plasma concentration (Cmax) and time to reach maximum concentration (tmax) were derived directly from the plasma concentration–time data. Lag time (tlag) was the time prior to the first measurable (non-zero) concentration. The area under the plasma concentration–time curve from 0 to t (last measurable concentration; AUC0–t) was calculated using a mixed log–linear trapezoidal method. Area under the plasma concentration–time curve until the last sampling time (AUCall), which corresponds to AUC0–240 h within the observation period, was used for metabolite calculations. Amounts excreted in urine, feces, and total (urine + feces) were calculated as the sum of amounts (concentration multiplied by volume) for each collection from time 0 to time t. The terminal rate constant (λz) was used to estimate the terminal half-life (t½) (ln 2/λz), and the area under the concentration–time curve from time 0 to infinity (AUC0–∞). Total body clearance (CL) and apparent body clearance (CL/f) were determined by dose/AUC0–∞, and total volume of distribution (Vz) and apparent volume of distribution (Vz/f) were calculated by dose/(AUC0–∞*λz) after IV and oral administration, respectively. Volume of distribution of the central compartment (Vc) was derived by dividing the dose by the initial drug plasma concentration after IV administration. Absolute bioavailability was calculated as F = (AUCoral/doseoral)/(AUCIV/doseIV) × 100. The ratios (%) AUCtepotinib or metabolite/AUCtotal radioactivity were calculated as a percentage of the molar AUCs.

[2] = Oral PK of tepotinib and total radioactivity in plasma and blood (part A); format: in vivo, human healthy male volunteers; conditions: min–max, n=6
Description: as §1
In brief, the isotopically labeled internal standard [^2H]-MSC2156119A was added to 20 μL K2-ethylenediaminetetraacetic acid (EDTA) plasma. […] Samples were centrifuged and 10 μL aliquots of the supernatant were injected onto an Acquity Charged Surface Hybrid™ (CSH) C18 column (2.1 × 50 mm; […]; Waters, Milford, Massachusetts, USA). Separation was carried out using a mobile phase gradient (eluent A: water/formic acid [100 + 1, v/v]; eluent B: acetonitrile/formic acid [100 + 1, v/v]) with a flow rate of 0.6 mL/min. […] The lower limit of quantification (LLOQ) was 5.00 ng/mL, and the calibration standard responses were linear over the range between 5.00 and 2500 ng/mL using a weighted (1/x^2) linear regression.
Total radioactivity in blood, plasma, urine, and feces samples, and quick counts in urine and feces samples were determined at the bioanalytical laboratory of PRA (Assen, The Netherlands) using liquid scintillation counting (LSC). Scintillation cocktail Ultima Gold™ (5 mL; Perkin Elmar, Waltham, Massachusetts, USA) was directly spiked into 250 μL plasma and 1000 μL urine samples, respectively, whereas 300 μL aliquots of blood samples were solubilized and decolorized before adding 18 mL of the scintillation cocktail prior to LSC. Feces samples were (quantitatively) homogenized with one or two weight equivalents of water, and an accurately weighted aliquot of approximately 500 mg of the homogenate was dried at 50 °C for at least 3 h. […]
The maximum plasma concentration (Cmax) and time to reach maximum concentration (tmax) were derived directly from the plasma concentration–time data. […] The area under the plasma concentration–time curve from 0 to t (last measurable concentration; AUC0–t) was calculated using a mixed log–linear trapezoidal method. […] Amounts excreted in urine, feces, and total (urine + feces) were calculated as the sum of amounts (concentration multiplied by volume) for each collection from time 0 to time t. […] Total body clearance (CL) and apparent body clearance (CL/f) were determined by dose/AUC0–∞, and total volume of distribution (Vz) and apparent volume of distribution (Vz/f) were calculated by dose/(AUC0–∞*λz) after IV and oral administration, respectively. […]

[3] = geometric mean of n=6, % of total radioactive dose, oral part A, listed as [^14C]-tepotinib
[4] = individual subjects 1–6, % of total radioactive dose, single oral 498 mg tepotinib + 2.67 MBq [14C]-tepotinib
[5] = maximum of n=6, % of total radioactive dose, oral part A
[6] = median of n=6, % of total radioactive dose, oral part A, listed as [^14C]-tepotinib
[7] = minimum of n=6, % of total radioactive dose, oral part A
[8] = range of n=6, % of oral [14C]-tepotinib dose
[9] = tepotinib in plasma, median, single oral 498 mg capsules

CN1CCC(COc2cnc(-c3cccc(Cn4nc(-c5cccc(C#N)c5)ccc4=O)c3)nc2)CC1 [Tepotinib]
time up to which radioactivity was observed in urine ([1]; after dosing, below LLOQ at 312 and 336 h in two participants): up to 360 h | time of first radioactivity detected in feces ([1]; after oral dose, part A): 24 to 48 h | time within which radioactivity was observed in urine ([1]; first collection period, part A): ≤ 4 h | Ae0–t total, Geometric mean ([1]; geometric mean of n=6, % of total radioactive dose, oral part A): 91.90% | Ae0–t feces, Geometric mean [1, 3]: 77.9% and 77.87% | Ae0–t urine, Geometric mean [1, 3]: 13.6% and 13.61% | radioactivity not recovered ([1]; geometric mean, pie chart Fig. 1, oral part A): 8.5% | Ae0–t feces [1, 4]: 79.48% and 77.92% and 69.40% and 76.89% and 82.53% and 81.76% | Ae0–t total (urine + feces) [1, 4]: 88.28% and 91.60% and 87.12% and 93.36% and 94.46% and 96.93% | Ae0–t urine [1, 4]: 8.80% and 13.68% and 17.72% and 16.47% and 11.93% and 15.17% | Ae0–t feces, Max [1, 5]: 82.53% | Ae0–t total, Max [1, 5]: 96.93% | Ae0–t urine, Max [1, 5]: 17.72% | Ae0–t feces, Median [1, 6]: 78.7% | Ae0–t total, Median [1, 6]: 92.5% and 92.48% | Ae0–t urine, Median [1, 6]: 14.4% and 14.43% | Ae0–t feces, Min [1, 7]: 69.40% | Ae0–t total, Min [1, 7]: 87.12% | Ae0–t urine, Min [1, 7]: 8.80% | time up to which excretion of radioactivity in feces was noted ([1]; post-dose, all participants, part A): up to 360 h | radioactivity excreted in feces, range [1, 8]: 69.4–82.5% | radioactivity excreted in urine, range [1, 8]: 8.8–17.7% | [14C]-tepotinib dose recovered in excreta per day ([1]; two consecutive measurements, days 15 and 16, all subjects): < 1% | t½ ([2]; tepotinib in plasma, geometric mean (geometric CV%), single oral 498 mg capsules): 33 h | tlag [2, 9]: 2 h | tmax [2, 9]: 9 h | tlag ([2]; total radioactivity in plasma, median, oral part A): 2.5 h
